Assays:
[1] = target: T1, HCV polymerase (NS5B) type 1b (Hepatitis C virus genotype 1b, UniProt P26663); assay: Assay of enzyme (HCV polymerase) inhibitory activity, type 1b enzyme; format: biochemical, HCV BK strain (type 1b); conditions: HCV polymerase inhibitory activity (IC50), 1b, type 1b enzyme 0.5 μg/ml, 25° C., 60 min
T1 construct: a region encoding NS5B (J Virol 1991 March, 65(3), 1105-13, 544 amino acids after deletion of 47 amino acids on the C-terminal); 6xHis (C); made in house; host or cells: Escherichia coli
Summary of the method: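 IC50 derived from [3H]UTP incorporation into TCA-insoluble RNA, compared with and without test compound. Reaction (25 °C, 60 min, Tris pH 7.5, 5 mM MgCl2): E. coli-expressed 1b NS5B Δ47 with His tag at 0.5 μg/ml, 5 μg/ml run-off substrate RNA, ATP/GTP/CTP 50 μM, UTP 2 μM.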

[2] = target: T2, HCV polymerase (NS5B) type 1a (Hepatitis C virus genotype 1a, UniProt P26664); assay: Assay of enzyme (HCV polymerase) inhibitory activity, type 1a enzyme; format: biochemical, HCV type 1a (cloned from the blood of patients); conditions: HCV polymerase inhibitory activity (IC50), 1a, type 1a enzyme 1.5 μg/ml, 25° C., 60 min
T2 construct: made in house; host or cells: Escherichia coli (by the 'similar method' of the 1b enzyme)
Summary of the method: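 Reactions ran 60 min at 25° C in 20 mM Tris-HCl pH 7.5, 5 mM MgCl2, 50 mM NaCl, holding genotype 1a NS5B (1.5 μg/ml, Δ47 C-terminus, 6His), substrate RNA 5 μg/ml, UTP 2 μM with tritiated UTP and other NTPs 50 μM. IC50 derived from incorporated radiolabel in filter-trapped RNA relative to uninhibited reaction.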

Row | Structure (SMILES) | IC50 [1] [µM] | IC50 [2] [µM]
1 | CCC(F)(F)c1ccc(CNC(=O)[C@H]2CN(C(=O)Nc3nc(C)ns3)CCN2S(=O)(=O)c2ccc(OC(F)(F)F)cc2)cc1 [Example 527, (R)-4-(4-trifluoromethoxy-benzenesulfonyl)-piperazine-1,3-dicarboxylic acid 3-[4-(1,1-difluoro-propyl)-benzylamide] 1-[(3-methyl-[1,2,4]thiadiazol-5-yl)-amide]] | 0.1 to 1 | 0.1 to 1
2 | CCC(F)(F)c1ccc(CNC(=O)[C@H]2CN(C(=O)Nc3cc(C)no3)CCN2S(=O)(=O)c2ccc(OC(F)(F)F)cc2)cc1 [Example 528, (R)-4-(4-trifluoromethoxy-benzenesulfonyl)-piperazine-1,3-dicarboxylic acid 3-[4-(1,1-difluoro-propyl)-benzylamide] 1-[(3-methyl-isoxazol-5-yl)-amide]] | < 0.1 | 0.1 to 1
3 | CC(=O)N1CCN(S(=O)(=O)c2ccc(OC(F)(F)F)cc2)[C@@H](C(=O)NCc2ccc(C(C)(C)C)cc2)C1 [Example 529, (R)-4-acetyl-1-(4-trifluoromethoxy-benzenesulfonyl)-piperazine-2-carboxylic acid 4-tert-butyl-benzylamide] | < 0.1 | < 0.1
4 | CCCc1ccc(CNC(=O)[C@H]2CN(c3cnc(N)cn3)CCN2S(=O)(=O)c2ccc(OC(F)(F)F)cc2)cc1 [Example 530, (R)-5′-amino-4-(4-trifluoromethoxy-benzenesulfonyl)-3,4,5,6-tetrahydro-2H-[1,2′]bipyrazinyl-3-carboxylic acid 4-propyl-benzylamide] | < 0.1 | 0.1 to 1
5 | CCCc1ccc(CNC(=O)[C@H]2CN(c3nc(C)c(CN4CCCC4)s3)CCN2S(=O)(=O)c2ccc(OC(F)(F)F)cc2)cc1 [Example 531, (R)-4-(4-methyl-5-pyrrolidin-1-ylmethyl-thiazol-2-yl)-1-(4-trifluoromethoxy-benzenesulfonyl)-piperazine-2-carboxylic acid 4-propyl-benzylamide] | < 0.1 | < 0.1
6 | CCOC(=O)Cn1nnc(CC(=O)N2CCN(S(=O)(=O)c3ccc(OC(F)(F)F)cc3)[C@@H](C(=O)NCc3ccc(C(F)(F)CC)cc3)C2)n1 [Example 532, (5-{2-[(R)-3-[4-(1,1-difluoro-propyl)-benzylcarbamoyl]-4-(4-trifluoromethoxy-benzenesulfonyl)-piperazin-1-yl]-2-oxo-ethyl}-tetrazol-2-yl)-acetic acid ethyl ester] | < 0.1 | < 0.1
7 | CCOC(=O)Cn1nnnc1CC(=O)N1CCN(S(=O)(=O)c2ccc(OC(F)(F)F)cc2)[C@@H](C(=O)NCc2ccc(C(F)(F)CC)cc2)C1 [Example 533, (5-{2-[(R)-3-[4-(1,1-difluoro-propyl)-benzylcarbamoyl]-4-(4-trifluoromethoxy-benzenesulfonyl)-piperazin-1-yl]-2-oxo-ethyl}-tetrazol-1-yl)-acetic acid ethyl ester] | > 1 | > 1
8 | CCCc1ccc(CNC(=O)[C@H]2CN(c3nc4c(s3)CN(C(=O)OCc3ccccc3)CC4)CCN2S(=O)(=O)c2ccc(OC(F)(F)F)cc2)cc1 [Example 534, 2-[(R)-3-(4-propyl-benzylcarbamoyl)-4-(4-trifluoromethoxy-benzenesulfonyl)-piperazin-1-yl]-6,7-dihydro-4H-thiazolo[5,4-c]pyridine-5-carboxylic acid benzyl ester] | < 0.1 | < 0.1
9 | CCCc1ccc(S(=O)(=O)N2CCN(c3nc(C(=O)O)c(CO)s3)C[C@@H]2C(=O)NCc2ccc(C(C)C)cc2)cc1 [Example 535, 5-hydroxymethyl-2-[(R)-3-(4-isopropyl-benzylcarbamoyl)-4-(4-propyl-benzenesulfonyl)-piperazin-1-yl]-thiazole-4-carboxylic acid] | < 0.1 | < 0.1
10 | CCCc1ccc(CNC(=O)[C@H]2CN(c3nc(C(=O)O)c(COC)s3)CCN2S(=O)(=O)c2ccc(OC(F)(F)F)cc2)cc1 [Example 536, 5-methoxymethyl-2-[(R)-3-(4-propyl-benzylcarbamoyl)-4-(4-trifluoromethoxy-benzenesulfonyl)-piperazin-1-yl]-thiazole-4-carboxylic acid] | < 0.1 | 0.1 to 1
11 | CCCc1ccc(CNC(=O)[C@H]2CN(c3nc(C(=O)O)c(CO)s3)CCN2S(=O)(=O)c2ccc(OC(F)(F)F)cc2)cc1 [Example 537, 5-hydroxymethyl-2-[(R)-3-(4-propyl-benzylcarbamoyl)-4-(4-trifluoromethoxy-benzenesulfonyl)-piperazin-1-yl]-thiazole-4-carboxylic acid] | < 0.1 | < 0.1
12 | CCCc1ccc(CNC(=O)[C@H]2CN(c3cnc(CN(C)C)cn3)CCN2S(=O)(=O)c2ccc(CC)cc2)cc1 [Example 538, (R)-5′-dimethylaminomethyl-4-(4-ethyl-benzenesulfonyl)-3,4,5,6-tetrahydro-2H-[1,2′]bipyrazinyl-3-carboxylic acid 4-propyl-benzylamide] | < 0.1 | < 0.1
13 | CCC(F)(F)c1ccc(CNC(=O)[C@H]2CN(C(=O)Nn3cnnc3)CCN2S(=O)(=O)c2ccc(OC(F)(F)F)cc2)cc1 [Example 539, (R)-4-(4-trifluoromethoxy-benzenesulfonyl)-piperazine-1,3-dicarboxylic acid 3-[4-(1,1-difluoro-propyl)-benzylamide] 1-[1,2,4]triazol-4-ylamide] | 0.1 to 1 | 0.1 to 1
14 | CCC(F)(F)c1ccc(CNC(=O)[C@H]2CN(C(=O)n3cnc(N)n3)CCN2S(=O)(=O)c2ccc(OC(F)(F)F)cc2)cc1 [Example 540, (R)-4-(3-amino-[1,2,4]triazole-1-carbonyl)-1-(4-trifluoromethoxy-benzenesulfonyl)-piperazine-2-carboxylic acid 4-(1,1-difluoro-propyl)-benzylamide] | > 1 | > 1
15 | CCC(F)(F)c1ccc(CNC(=O)[C@H]2CN(C(=O)Cn3nnnc3C(C)C)CCN2S(=O)(=O)c2ccc(OC(F)(F)F)cc2)cc1 [Example 541, (R)-4-[2-(5-isopropyl-tetrazol-1-yl)-acetyl]-1-(4-trifluoromethoxy-benzenesulfonyl)-piperazine-2-carboxylic acid 4-(1,1-difluoro-propyl)-benzylamide] | 0.1 to 1 | 0.1 to 1
16 | CCC(F)(F)c1ccc(CNC(=O)[C@H]2CN(C(=O)Cn3nnc(C(C)C)n3)CCN2S(=O)(=O)c2ccc(OC(F)(F)F)cc2)cc1 [Example 542, (R)-4-[2-(5-isopropyl-tetrazol-2-yl)-acetyl]-1-(4-trifluoromethoxy-benzenesulfonyl)-piperazine-2-carboxylic acid 4-(1,1-difluoro-propyl)-benzylamide] | < 0.1 | < 0.1
17 | CCC(F)(F)c1ccc(CNC(=O)[C@H]2CN(C(=O)Cn3nnc(CC(=O)N4CCOCC4)n3)CCN2S(=O)(=O)c2ccc(OC(F)(F)F)cc2)cc1 [Example 543, (R)-4-{2-[5-(2-morpholin-4-yl-2-oxo-ethyl)-tetrazol-2-yl]-acetyl}-1-(4-trifluoromethoxy-benzenesulfonyl)-piperazine-2-carboxylic acid 4-(1,1-difluoro-propyl)-benzylamide] | < 0.1 | < 0.1

Source: patent US8017612B2, “Piperazine compound and use thereof as a HCV polymerase inhibitor” (priority 2006, dated 2011)
